The supplement of paper PMC7017272
± gives the standard deviation of the averaged measurements.

Experiments:
Experiment in all cases: maximal % inhibition of viability relative to DMSO; higher = stronger effect
[1] = system: UT-SCC-40; conditions: treatment time: 3 days
Method: (§1)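 HNSCC cell lines (500 cells/well, 384-well) were cultured on plastic, on top of (2D) or embedded (3D) in Matrigel or human leiomyoma matrix Myogel (500 ug/mL; Myogel 3D mixed with rat collagen I). Cells were treated for 3 days with 5 ten-fold concentrations of each drug, and viability was read by CellTiter-Glo. Viability was normalised to DMSO and benzethonium chloride controls and fitted with the FIMM DSRT pipeline to give IC50 (nM), maximal % inhibition and DSS. Suffixes _1/_2/_3 are replicates. Only inhibition-mode (IC50) fits are kept.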

[2] = system: UT-SCC-42B; conditions: treatment time: 3 days
Method: as §1

[3] = system: UT-SCC-24B; conditions: treatment time: 3 days
Method: as §1

[4] = system: UT-SCC-14; conditions: treatment time: 3 days
Method: as §1

[5] = system: UT-SCC-8; conditions: treatment time: 3 days
Method: as §1

[6] = system: UT-SCC-73; conditions: treatment time: 3 days
Method: as §1

[7] = system: UT-SCC-42A; conditions: treatment time: 3 days
Method: as §1

[8] = system: UT-SCC-44; conditions: treatment time: 3 days
Method: as §1

[9] = system: UT-SCC-81; conditions: culture condition: embedded in Matrigel; treatment time: 3 days
Method: as §1

[10] = culture condition: embedded in Matrigel
[11] = culture condition: embedded in Myogel + collagen I
[12] = culture condition: on top of Matrigel
[13] = culture condition: on top of Myogel
[14] = culture condition: plastic 2D (no matrix)

Compound: COc1ncc(-c2ccc3nccc(-c4ccnnc4)c3c2)cc1NS(=O)(=O)c1ccc(F)cc1F [Omipalisib]
- maximal % inhibition of viability [1, 10]: 98.67 ± 0.4%
- maximal % inhibition of viability [1, 11]: 89.9 ± 0.76%
- maximal % inhibition of viability [1, 12]: 96.4 ± 1.7%
- maximal % inhibition of viability [1, 13]: 85.8 ± 1.6%
- maximal % inhibition of viability [1, 14]: 88.4 ± 2%
- maximal % inhibition of viability [2, 10]: 96.3 ± 0.7%
- maximal % inhibition of viability [2, 12]: 91.1 ± 1.4%
- maximal % inhibition of viability [2, 13]: 84 ± 1.2%
- maximal % inhibition of viability [2, 14]: 86.7 ± 1.1%
- maximal % inhibition of viability [3, 10]: 95.6 ± 0.79%
- maximal % inhibition of viability [3, 11]: 96.6 ± 1.4%
- maximal % inhibition of viability [3, 12]: 94.8 ± 1.3%
- maximal % inhibition of viability [3, 13]: 92 ± 1.2%
- maximal % inhibition of viability [3, 14]: 96.27 ± 0.55%
- maximal % inhibition of viability [4, 10]: 94.8 ± 1.1%
- maximal % inhibition of viability [4, 11]: 92.2 ± 1.3%
- maximal % inhibition of viability [4, 12]: 93.9 ± 1.9%
- maximal % inhibition of viability [4, 13]: 90 ± 2.3%
- maximal % inhibition of viability [4, 14]: 92.47 ± 0.81%
- maximal % inhibition of viability [5, 10]: 99.57 ± 0.25%
- maximal % inhibition of viability [5, 11]: 98.2 ± 0.56%
- maximal % inhibition of viability [5, 12]: 98.5 ± 1.1%
- maximal % inhibition of viability [5, 13]: 96.8 ± 1%
- maximal % inhibition of viability [5, 14]: 97.87 ± 0.61%
- maximal % inhibition of viability [6, 10]: 91.2 ± 0.27%
- maximal % inhibition of viability [6, 11]: 89.6 ± 3.3%
- maximal % inhibition of viability [6, 12]: 90.7 ± 1.4%
- maximal % inhibition of viability [6, 13]: 90 ± 1.3%
- maximal % inhibition of viability [6, 14]: 87.9 ± 1.4%
- maximal % inhibition of viability [7, 10]: 97.27 ± 0.59%
- maximal % inhibition of viability [7, 11]: 87.8 ± 1.7%
- maximal % inhibition of viability [7, 12]: 96.13 ± 0.86%
- maximal % inhibition of viability [7, 13]: 90.83 ± 0.76%
- maximal % inhibition of viability [7, 14]: 92.7 ± 1.3%
- maximal % inhibition of viability [8, 10]: 52.5 ± 1.9%
- maximal % inhibition of viability [8, 11]: 58.5 ± 5.7%
- maximal % inhibition of viability [8, 12]: 54.8 ± 4.2%
- maximal % inhibition of viability [8, 13]: 62.1 ± 5.8%
- maximal % inhibition of viability [8, 14]: 56 ± 3.9%
- maximal % inhibition of viability [9]: 97.77 ± 0.51%
